{"source": "paper PMC6131539", "about": "“Behavioral Effects of a Potential Novel TAAR1 Antagonist” (Frontiers in Pharmacology, 2018)", "assay_type_in_all_cases": "in vivo", "key": {"[1]": {"system": "TAAR1-KO mice", "experiment": "Stereotypic counts, co-injection with cocaine, TAAR1-KO mice", "conditions": "5, 15 and 25 mg/kg co-injected with cocaine 10 mg/kg", "procedure": "Experimentally naïve mice, of at least 12 weeks of age, were used for all behavioral experiments. The mice were randomly assigned to treatment or control groups, balanced by sex and weight. Locomotor activity was assessed using the automated locomotor analysis monitors (Omnitech Electronics, Columbus, OH, United States). The apparatus included four open field monitors. Each Open Field monitor consisted of sets of 16 light beams arrayed in the horizontal X and Y axes. The hardware detected beams broken by the animal, which allowed the software to determine the location of the mouse in the cage. Total distance covered by mice was used to characterize locomotor activity of the animals. The monitors were divided into four compartments (20 cm × 20 cm). Animals were tested individually for defined periods with 5-min intervals. The mice were first weighed and then placed into the apparatus, allowing for 30 min habituation. […] The locomotor activity was then measured for additional 1 h. […]\nSupplementary file Image_2.TIF: FIGURE S2 In vivo studies with TAAR1-KO mice and compound 22 on stereotypic counts activity. […] The sum of stereotypic counts was assessed over 60 min after the injection of amphetamine and compound 22 in WT (solid bars) or TAAR1-KO mice (spotted bars). […] The sum of stereotypic counts was assessed over 60 min following the injection in WT (solid bars) or TAAR1-KO mice (dotted bars). […]"}, "[2]": {"system": "C57BL/6J mice", "experiment": "Basal locomotor activity in C57BL/6J mice", "procedure": "(§1) Experimentally naïve mice, of at least 12 weeks of age, were used for all behavioral experiments. The mice were randomly assigned to treatment or control groups, balanced by sex and weight. Locomotor activity was assessed using the automated locomotor analysis monitors (Omnitech Electronics, Columbus, OH, United States). The apparatus included four open field monitors. Each Open Field monitor consisted of sets of 16 light beams arrayed in the horizontal X and Y axes. The hardware detected beams broken by the animal, which allowed the software to determine the location of the mouse in the cage. Total distance covered by mice was used to characterize locomotor activity of the animals. The monitors were divided into four compartments (20 cm × 20 cm). Animals were tested individually for defined periods with 5-min intervals. The mice were first weighed and then placed into the apparatus, allowing for 30 min habituation. Following the habituation, the mice were removed from the al apparatus and injected with drugs (see below for administration) or vehicle and returned immediately to the locomotor chamber. The locomotor activity was then measured for additional 1 h. After the experiments, the animals were euthanized by cervical dislocation.\nAll drug solutions were prepared freshly on the day of the experiment and injected i.p. at the volume of 10 ml/kg. […] Amphetamine was dissolved in 0.9% saline at a concentration of 0.2 mg/mL.\nIn order to assess the effects of compound 22 on basal locomotor activity, C57BL/6 mice were injected with doses of 5 and 30 mg/kg of compound 22 or vehicle (Figure 1). At the dose of 5 mg/kg, compound 22 inhibited basal locomotor activity by 58% (^∗p = 0.02). Although not significant, there was a trend toward a decrease in locomotor activity at the dose of 30 mg/kg as well (26% decrease, p = 0.15).\nFIGURE 1 In vivo studies with compound 22 on basal locomotor activity. Wild type C57BL/6J mice were first habituated for 30 min followed by co-injection of saline or compound 22 at a dose of 5 or 30 mg/kg. The locomotor activity was assessed for 60 min after injection. […]"}, "[3]": {"system": "TAAR1-KO mice", "experiment": "Amphetamine-induced locomotor activity, co-injection, TAAR1-KO mice", "conditions": "15 mg/kg co-injected with amphetamine 2 mg/kg, p = 0.004", "procedure": "The Taarl^-/- (TAAR1-KO) mice were obtained from Lundbeck ([Wolinsky et al., 2007]). All wild type (WT) and TAAR1-KO mice used for experiments were generated from TAAR1-KO heterozygous mice in a C57BL/6J x 129S1/Sv mixed background.\nas §1, with “chamber.” for “chamber. The locomotor activity was then measured for additional 1 h. After the experiments, the animals were euthanized by cervical dislocation.”"}}, "data": [{"smiles": "Clc1ccc(CNCc2ccc(Cn3cncn3)cc2)c(Cl)c1", "note": "[compound 22]", "values": [{"measurement": "stereotypic counts", "setting": "[1]", "value": "significant increases in stereotypic counts"}, {"measurement": "inhibition of basal locomotor activity", "setting": "[2]; 5 mg/kg i.p. alone, sum over 60 min vs saline, p = 0.02", "value": 58, "unit": "%"}, {"measurement": "decrease in basal locomotor activity", "setting": "[2]; 30 mg/kg i.p. alone, sum over 60 min vs saline, not significant, p = 0.15", "value": 26, "unit": "%"}, {"measurement": "effect on locomotor activity when administered alone", "setting": "[2]; 5 and 30 mg/kg i.p., administered alone", "value": "did not stimulate locomotor activity"}, {"measurement": "potentiation of locomotor stimulating effects of amphetamine", "setting": "[3]", "value": 84, "unit": "%"}]}]}
